According to ChEMBL document CHEMBL3046576, “Rational exploration of new pyridinium-based HSP90 inhibitors tailored to thiamine structure” (Med Chem Res, 2012):
pIC50: −log10 of the molar value. Activity calls are given as the source filed them. No cut-off for these calls is given here.

Columns and labels:
[1] = molecular target: T1, Heat shock protein HSP 90-alpha (Homo sapiens, UniProt P07900); assay: Inhibition of recombinant Homo sapiens (human) Hsp90 alpha ATPase activity assessed as inorganic phosphate release at 10 uM by malachite green colorimetric method
[2] = molecular target: T1, Heat shock protein HSP 90-alpha; assay: Inhibition of recombinant Homo sapiens (human) Hsp90 alpha ATPase activity assessed as inorganic phosphate release by malachite green colorimetric method

Compound | inhibition [1] | pIC50 [2]
COc1ccc(NC(=O)C[n+]2cccc(C(=O)Nc3ccc(OC)cc3)c2)cc1 | 3% | 
C=CCNC(=O)c1ccc[n+](CC(=O)Nc2ccc(C)cc2)c1 | 23% | 
Cc1ccccc1NC(=O)C[n+]1cccc(C(N)=O)c1 | 8% | 
NC(=O)c1ccc[n+](CC(=O)Nc2ccc([N+](=O)[O-])cc2)c1 | 62% | 5.12
CC(=O)NS(=O)(=O)c1ccc(NC(=O)C[n+]2cccc(C(N)=O)c2)cc1 | 36% | 4.90
COc1ccc(NC(=O)C[n+]2cccc(C(=O)Nc3ccc([N+](=O)[O-])cc3)c2)cc1 | inactive | 
O=C(C[n+]1cccc(C(=O)Nc2ccc(Cl)cc2)c1)Nc1ccc(Cl)cc1 | inactive | 
NC(=O)c1ccc[n+](CCc2ccccc2)c1 | 9% | 
Cc1cccc(NC(=O)C[n+]2ccccc2)c1 | 12% | 
COc1ccc(NC(=O)C[n+]2cccc(C(=O)Nc3ccccc3)c2)cc1 | 4% | 
NS(=O)(=O)c1ccc(NC(=O)C[n+]2cccc(C(=O)Nc3ccc(Cl)cc3)c2)cc1 | 3% | 
O=C(C[n+]1cccc(C(=O)Nc2ccccc2)c1)Nc1ccc(Cl)cc1 | 17% | 
Cc1ccc(NC(=O)C[n+]2ccccc2)cc1 | inactive | 
O=C(C[n+]1cccc(C(=O)Nc2ccccc2)c1)Nc1ccc([N+](=O)[O-])cc1 | 11% | 
COc1ccc(NC(=O)C[n+]2cccc(C(=O)Nc3ccc(Cl)cc3)c2)cc1 | 2% | 
NS(=O)(=O)c1ccc(NC(=O)C[n+]2ccccc2)cc1 | 7% | 
COc1ccc(NC(=O)C[n+]2cccc(C(=O)Nc3ccc(SC)cc3)c2)cc1 | 29% | 
N=C(N)NS(=O)(=O)c1ccc(NC(=O)C[n+]2cccc(C(N)=O)c2)cc1 | 29% | 

Compound | inhibition [1] | pIC50 [2]
Cc1cccc(NC(=O)C[n+]2cccc(C(N)=O)c2)c1 | 34% | 4.88
COc1ccc(NC(=O)C[n+]2cccc(C(N)=O)c2)cc1 | 20% | 
CSc1ccc(NC(=O)C[n+]2cccc(C(=O)Nc3ccccc3)c2)cc1 | 14% | 
COc1ccc(NC(=O)c2ccc[n+](CC(=O)Nc3ccc(S(N)(=O)=O)cc3)c2)cc1 | 23% | 
CC(=O)NS(=O)(=O)c1ccc(NC(=O)C[n+]2ccccc2)cc1 | 46% | 4.90
NS(=O)(=O)c1ccc(NC(=O)C[n+]2cccc(C(=O)Nc3ccccc3)c2)cc1 | 47% | 4.58
CSc1ccc(NC(=O)C[n+]2cccc(C(=O)Nc3ccc(Cl)cc3)c2)cc1 | 24% | 
Cc1ccc(NC(=O)C[n+]2cccc(C(=O)Nc3ccc(Cl)cc3)c2)cc1 | 48% | 4.76
CSc1ccc(NC(=O)c2ccc[n+](CC(=O)Nc3ccc(C)cc3)c2)cc1 | 18% | 
Cc1cccc(NC(=O)c2ccc[n+](CC(=O)Nc3ccc(Cl)cc3)c2)c1 | 24% | 
C=CCNC(=O)c1ccc[n+](CC(=O)Nc2ccc(Cl)cc2)c1 | 1.6% | 
Cc1ccc(NC(=O)C[n+]2cccc(C(N)=O)c2)cc1 | 34% | 4.37
O=C(C[n+]1ccccc1)Nc1ccc([N+](=O)[O-])cc1 | 34% | 4.83
O=C(C[n+]1ccccc1)Nc1ccccc1 | 3% | 
NC(=O)c1ccc[n+](CC(=O)Nc2ccccc2)c1 | 37% | 4.88
Cc1ccc(NC(=O)C[n+]2cccc(C(=O)Nc3ccccc3)c2)cc1 | 59% | 5.13
O=C(C[n+]1ccccc1)NCc1ccccc1 | 36% | 4.30
COc1ccc(NC(=O)c2ccc[n+](CC(=O)Nc3ccc(Cl)cc3)c2)cc1 | 10% | 

Next, values leading:

inhibition [1] | pIC50 [2] | Compound
43% | 4.88 | COc1ccc(NC(=O)C[n+]2ccccc2)cc1
32% | 4.92 | NC(=O)c1ccc[n+](CC(=O)Nc2ccc(S(N)(=O)=O)cc2)c1
20% |  | N=C(N)NS(=O)(=O)c1ccc(NC(=O)C[n+]2ccccc2)cc1
inactive |  | COc1ccc(NC(=O)c2ccc[n+](CC(=O)Nc3ccc([N+](=O)[O-])cc3)c2)cc1
3% |  | CSc1ccc(NC(=O)c2ccc[n+](CC(=O)Nc3ccc([N+](=O)[O-])cc3)c2)cc1
10% |  | NC(=O)c1ccc[n+](Cc2ccccc2)c1
21% |  | Cc1ccc(NC(=O)C[n+]2cccc(C(=O)Nc3ccc([N+](=O)[O-])cc3)c2)cc1
24% |  | O=C(C[n+]1cccc(C(=O)Nc2ccc(Cl)cc2)c1)Nc1ccc([N+](=O)[O-])cc1
16% |  | Cc1ccc(NC(=O)C[n+]2cccc(C(=O)Nc3cccc(C)c3)c2)cc1
inactive |  | C=CCNC(=O)C[n+]1cccc(C(N)=O)c1
8% |  | NS(=O)(=O)c1ccc(NC(=O)C[n+]2cccc(C(=O)Nc3ccc([N+](=O)[O-])cc3)c2)cc1
24% |  | NC(=O)c1ccc[n+](CC(=O)Nc2ccc(Cl)cc2)c1
46% | 4.79 | NC(=O)c1ccc[n+](CC(=O)NCCc2ccccc2)c1
40% | 4.90 | Cc1ncc(C[n+]2csc(CCO)c2C)c(N)n1 [THIAMINE ION]
20% |  | C=CCNC(=O)c1ccc[n+](CC(=O)Nc2ccc([N+](=O)[O-])cc2)c1
20% |  | NC(=O)c1ccc[n+](CC(=O)NCc2ccccc2)c1
32% | 4.31 | C=CCNC(=O)c1ccc[n+](CC(=O)Nc2ccc(OC)cc2)c1
3% |  | O=C(C[n+]1ccccc1)Nc1ccc(Cl)cc1
19% |  | CSc1ccc(NC(=O)c2ccc[n+](CC(=O)Nc3ccc(Cl)cc3)c2)cc1
20% |  | COc1ccc(NC(=O)c2ccc[n+](CC(=O)Nc3ccc(C)cc3)c2)cc1
13% |  | CCOC(=O)C[n+]1cccc(C(N)=O)c1
